Laboratory results published in US12084473B2, “β-D-2′-deoxy-2′-α-fluoro-2′-β-C-substituted-2-modified-N6-substituted purine nucleotides for HCV treatment” (Atea Pharmaceuticals, Inc., priority 2015, dated 2024).
Read-outs that look alike come from different tables or passages of the source.

Tests used:
[1] = system: micro-patterned human hepatocyte co-cultures; assay: Human Hepatocyte Co-Cultures (HepatoPac): cytotoxicity and hepatocyte health; format: cell-based; conditions: for IC50: Homo sapiens, Hepatocyte
Procedure: Cytotoxicity and hepatocyte health were assessed in triplicate by measuring ALT leakage, urea production, albumin secretion and cellular ATP contents in micro-patterned human hepatocyte co-cultures (HepatoPac®, Hepregen Corporation) prepared by seeding cryopreserved human hepatocytes (single donor) and 3T3 J2 mouse fibroblasts in microtiter plates according to procedures established by Hepregen. Culture media was replaced with fresh media containing TA, test article, (0, 1, 10 or 30 μM) every 2 or 3 days through day 16. […] Cellular ATP levels were measured on days 9 and 21. ATP signals in stromal-only control cultures (murine 3T3 fibroblasts) were subtracted from those of human HepatoPac co-cultures to obtain hepatocyte-specific effects. See, Table 4, 5 and 6 below.

[2] = Stability in fresh human whole blood; format: in vitro ADME; conditions: 10 μM, up to 120 min, FIG. 5
Procedure: The stability of selected compounds in fresh human whole blood and in human liver S9 fraction was determined in incubations containing 10 μM test compound. After incubations of 0, 30, 60 min, and up to 120 min, aliquots were removed and immediately extracted with 3 volumes of ice-cold methanol/acetonitrile (1:1, v/v). Extracts were centrifuged and supernatants were analyzed by LC-MS/MS for concentrations of unchanged test compound and potential metabolites.

[3] = Human Bone Marrow Progenitor Cell Assay; format: cell-based; conditions: human, fresh human bone marrow progenitor cells; read-out: CC50 in human bone marrow stem cells
Procedure: Fresh human bone marrow progenitor cells (Invitrogen) suspended in either BFU-E or GM-CSF-specific culture medium were added, at 10^5 cells/well, to triplicate serial dilutions of TA in 6-well plates. After 14-day incubations, colony counts were used to determine CC50 values. BFU-E colonies were confirmed using the benzidene technique.

[4] = iPS Cardiomyocyte Assay; format: cell-based, human; conditions: human, iPS cardiomyocytes
Procedure: iPS Cardiomyocytes (Cellular Dynamics) were seeded in microliter plates at 1.5×10^4 cells per well. After 48-hr incubation, cells were washed and maintenance medium containing serially diluted TA was added in triplicate. After incubating for an additional 3 days, cell viability was measured by staining with XTT and CC50 values were calculated.

[5] = target: T1, human DNA polymerase γ (Homo sapiens, UniProt P54098); assay: Human DNA Polymerase Assays; format: biochemical; conditions: at concentrations up to 100 μM
T1 construct: purchased CHIMERx
T1 sequence (P54098 1-1239): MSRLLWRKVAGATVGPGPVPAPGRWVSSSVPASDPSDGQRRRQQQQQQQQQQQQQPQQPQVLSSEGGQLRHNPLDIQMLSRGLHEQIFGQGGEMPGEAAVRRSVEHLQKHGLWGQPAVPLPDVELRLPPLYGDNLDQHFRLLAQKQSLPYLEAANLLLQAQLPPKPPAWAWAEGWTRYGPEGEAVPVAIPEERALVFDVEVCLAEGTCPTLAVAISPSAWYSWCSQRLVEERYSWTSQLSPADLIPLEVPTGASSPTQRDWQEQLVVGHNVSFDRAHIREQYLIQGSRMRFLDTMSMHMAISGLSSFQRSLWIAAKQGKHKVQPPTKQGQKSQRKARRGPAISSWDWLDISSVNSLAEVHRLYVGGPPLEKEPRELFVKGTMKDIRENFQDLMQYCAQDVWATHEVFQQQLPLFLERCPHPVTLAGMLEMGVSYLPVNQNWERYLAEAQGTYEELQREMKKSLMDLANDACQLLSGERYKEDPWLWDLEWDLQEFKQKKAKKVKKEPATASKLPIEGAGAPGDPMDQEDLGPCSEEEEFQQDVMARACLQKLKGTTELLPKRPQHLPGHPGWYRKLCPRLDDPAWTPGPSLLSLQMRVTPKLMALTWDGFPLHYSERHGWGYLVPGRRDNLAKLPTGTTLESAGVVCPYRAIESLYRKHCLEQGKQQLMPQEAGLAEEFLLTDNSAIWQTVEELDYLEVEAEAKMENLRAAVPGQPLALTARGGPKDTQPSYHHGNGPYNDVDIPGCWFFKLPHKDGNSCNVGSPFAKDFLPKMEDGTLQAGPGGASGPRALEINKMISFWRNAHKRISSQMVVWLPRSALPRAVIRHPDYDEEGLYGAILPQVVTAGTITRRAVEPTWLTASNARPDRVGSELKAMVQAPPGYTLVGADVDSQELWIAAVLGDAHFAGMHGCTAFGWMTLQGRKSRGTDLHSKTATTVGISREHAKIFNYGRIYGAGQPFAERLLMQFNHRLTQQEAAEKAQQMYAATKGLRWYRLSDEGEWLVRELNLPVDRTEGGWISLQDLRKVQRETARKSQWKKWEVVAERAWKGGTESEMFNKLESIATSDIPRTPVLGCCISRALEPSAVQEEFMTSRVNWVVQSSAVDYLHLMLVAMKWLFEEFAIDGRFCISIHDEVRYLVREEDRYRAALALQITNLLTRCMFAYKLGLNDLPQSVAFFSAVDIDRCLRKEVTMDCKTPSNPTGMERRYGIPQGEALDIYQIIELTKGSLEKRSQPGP
Procedure: Inhibition of human DNA polymerases α, β and γ (CHIMERx) was determined in triplicate in reaction mixtures of serially diluted TA, 0.05 mM dCTP, dTTP, and dATP, 10 μCi [^32P]-α-dGTP (800 Ci/mmol), 20 μg activated calf thymus DNA and additional reagents specific for each polymerase.

[6] = system: other RNA or DNA viruses; assay: Activity against other RNA or DNA viruses; format: cell-based; conditions: at concentrations up to 100 μM
[7] = system: host cell lines; assay: Toxicity in host cell lines; format: cell-based; conditions: at concentrations up to 100 μM

Question: What does the source list for `CNc1nc(N)nc2c1ncn2[C@@H]1OC(CO[P@@](=O)(N[C@@H](C)C(=O)OC(C)C)Oc2ccccc2)[C@@H](O)[C@@]1(C)F` (some centres unmarked) [Compound 5-2]?
Answer: IC50 ([1]; 48 h, Table 5, Day 2, read-out: Effect on Albumin Secretion, 50% Inhibitory Concentration (IC50)): > 30 µM; IC50 ([1]; 48 h, Table 6, Day 2, read-out: Effect on Albumin Secretion, 50% Inhibitory Concentration (IC50)): > 30 µM; IC50 ([1]; 120 h, Table 5, Day 5, read-out: Effect on Albumin Secretion, 50% Inhibitory Concentration (IC50)): > 30 µM; IC50 ([1]; 120 h, Table 6, Day 5, read-out: Effect on Albumin Secretion, 50% Inhibitory Concentration (IC50)): > 30 µM; IC50 ([1]; 168 h, Table 5, Day 7, read-out: Effect on Albumin Secretion, 50% Inhibitory Concentration (IC50)): > 30 µM; IC50 ([1]; 168 h, Table 6, Day 7, read-out: Effect on Albumin Secretion, 50% Inhibitory Concentration (IC50)): > 30 µM; IC50 ([1]; 216 h, Day 9, read-out: Effect on Cellular ATP Concentrations, 50% Inhibitory Concentration (IC50)): > 30 µM; IC50 ([1]; 216 h, Table 5, Day 9, read-out: Effect on Albumin Secretion, 50% Inhibitory Concentration (IC50)): > 30 µM; IC50 ([1]; 216 h, Table 6, Day 9, read-out: Effect on Albumin Secretion, 50% Inhibitory Concentration (IC50)): > 30 µM; IC50 ([1]; 288 h, Table 6, Day 12, read-out: Effect on Albumin Secretion, 50% Inhibitory Concentration (IC50)): > 30 µM; IC50 ([1]; 384 h, Table 6, Day 16, read-out: Effect on Albumin Secretion, 50% Inhibitory Concentration (IC50)): 24.2 µM; IC50 ([1]; 504 h, Day 21, read-out: Effect on Cellular ATP Concentrations, 50% Inhibitory Concentration (IC50)): 12.8 µM; IC50 ([1]; 504 h, Table 6, Day 21, read-out: Effect on Albumin Secretion, 50% Inhibitory Concentration (IC50)): 14.5 µM; signs of cytotoxicity by ALT leakage, albumin secretion, urea production and cellular ATP content ([1]; concentrations up to 30 μM, up to 12 days): no signs of cytotoxicity; cytotoxicity with extended exposure ([1]; up to 21 days of culture): minor indications of cytotoxicity; stability in human blood [2]: excellent stability

Question: With `CC(C)OC(=O)[C@H](C)N[P@](=O)(OCC1O[C@@H](n2cnc3c(N(C)C)nc(N)nc32)[C@](C)(F)[C@@H]1O)Oc1ccccc1` (stereo partly drawn) [Compound 25, isopropyl ((((S)-(2R,3R,4R,5R)-5-(2-amino-6-(dimethylamino)-9H-purin-9-yl)-4-fluoro-3-hydroxy-4-methyltetrahydrofuran-2-yl)methoxy)-phenoxy-phosphoryl)-L-alaninate] as the compound, how does the CC50 at 14 day [3] read?
Answer: > 100 µM

Question: And the CC50 at 3 day [4]?
Answer: > 100 µM

Question: And the “inhibition of human DNA polymerase γ” value [5]?
Answer: No inhibition

Question: And the “activity against other RNA or DNA viruses” value [6]?
Answer: no activity

Question: What about the “toxicity in all host cell lines” value [7] of the same compound?
Answer: no toxicity

Question: Which results are given for `CC(C)OC(=O)[C@H](C)N[P@](=O)(OCC1O[C@@H](n2cnc3c(N(C)C4CC4)nc(N)nc32)[C@](C)(F)[C@@H]1O)Oc1ccccc1` (stereo partly drawn) [Compound 27, isopropyl ((((S)-(2R,3R,4R,5R)-5-(2-amino-6-(methylcyclopropanamino)-9H-purin-9-yl)-4-fluoro-3-hydroxy-4-methyltetrahydrofuran-2-yl)methoxy)-phenoxy-phosphoryl)-L-alaninate]?
Answer: CC50 at 14 day [3]: > 100 µM; CC50 at 3 day [4]: > 100 µM; inhibition of human DNA polymerase γ [5]: No inhibition; activity against other RNA or DNA viruses [6]: no activity; toxicity in all host cell lines [7]: no toxicity
